Measurements from patent US10300071B2, “Compositions and methods for inhibition of mycobacteria” (priority 2014, dated 2019).
In brackets after ≈: the same amount, converted by molar mass.

Legend:
[1] = molecular target: Mtb AccD6 (Mycobacterium tuberculosis, UniProt P9WQH5); assay: biochemical; assay type: biochemical; details: for IC50: 300 μM malonyl-CoA, inhibitor 10 μM to 2000 μM, read-out: IC50
[2] = test system: Mtb strain mc^2-7000; assay: microbe, parasite or virus in culture; assay type: cell-based, Mycobacterium tuberculosis; details: Mycobacterium tuberculosis, 144 h; 6 days incubation at 37° C., resazurin, read on the 7th day; read-out: MIC
[3] = test system: S. cerevisiae
[4] = test system: human fibroblast

Mtb AccD6, sequence (P9WQH5 whole entry, looked up): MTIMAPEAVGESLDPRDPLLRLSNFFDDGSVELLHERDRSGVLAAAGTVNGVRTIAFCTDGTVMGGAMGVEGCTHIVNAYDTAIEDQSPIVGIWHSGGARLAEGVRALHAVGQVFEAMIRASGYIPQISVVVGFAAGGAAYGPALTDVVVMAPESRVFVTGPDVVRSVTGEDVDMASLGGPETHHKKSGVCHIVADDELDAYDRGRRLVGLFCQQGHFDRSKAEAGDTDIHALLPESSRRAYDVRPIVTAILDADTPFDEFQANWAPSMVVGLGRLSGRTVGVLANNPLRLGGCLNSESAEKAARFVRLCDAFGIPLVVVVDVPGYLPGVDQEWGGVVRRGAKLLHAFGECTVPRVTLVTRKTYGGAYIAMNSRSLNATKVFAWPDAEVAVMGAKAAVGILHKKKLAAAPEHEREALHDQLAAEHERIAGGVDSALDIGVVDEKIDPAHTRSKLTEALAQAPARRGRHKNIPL

CC(C(=O)O)c1ccc(Oc2nc3ccc(Cl)cc3s2)cc1 (stereo not shown) [NZ-312, 2-{4-[(6-chloro-1,3-benzothiazol-2-yl)oxy]phenyl}propanoic acid]
IC50 [1]: 260 nM | MIC [2]: 6 µM (≈ 2 µg/mL) | concentrations at which not toxic, s. cerevisiae cytotoxicity [3]: ≥ 100 µM | concentrations at which not toxic, human fibroblast cytotoxicity [4]: ≥ 100 µM

CCOC(=O)[C@@H](C)Oc1ccc(Oc2nc3ccc(F)cc3s2)cc1 [NZ-251, ethyl (2R)-2-{4-[(6-fluoro-1,3-benzothiazol-2-yl)oxy]phenoxy}propanoate]
MIC [2]: 0.23 µM (≈ 0.0831 µg/mL) | concentrations at which not toxic, s. cerevisiae cytotoxicity [3]: ≥ 100 µM | concentrations at which not toxic, human fibroblast cytotoxicity [4]: ≥ 100 µM

CN(C)C(=O)Nc1ccc(Oc2cnc3cc(Cl)ccc3n2)cc1 [NZ-343, 1-{4-[(6-chloroquinoxalin-2-yl)oxy]phenyl}-3,3-dimethylurea]
IC50 [1]: 400 nM | MIC [2]: 25 µM (≈ 8.57 µg/mL) | concentrations at which not toxic, human fibroblast cytotoxicity [4]: ≥ 100 µM

CC(C)NC(=O)Nc1ccc(Oc2ccc3cc(Cl)ccc3n2)cc1 [NZ-346, 1-{4-[(6-chloroquinolin-2-yl)oxy]phenyl}-3-(propan-2-yl)urea]
IC50 [1]: 400 nM | MIC [2]: 50 µM (≈ 17.8 µg/mL) | concentrations at which not toxic, human fibroblast cytotoxicity [4]: ≥ 100 µM

CONC(=O)C(C)c1ccc(Oc2nc3ccc(OC)cc3s2)cc1 (stereo not shown) [NZ-335, N-methoxy-2-{4-[(6-methoxy-1,3-benzothiazol-2-yl)oxy]phenyl}propanamide]
MIC [2]: 12 µM (≈ 4.3 µg/mL) | concentrations at which not toxic, s. cerevisiae cytotoxicity [3]: ≥ 100 µM | concentrations at which not toxic, human fibroblast cytotoxicity [4]: ≥ 100 µM

COC(=O)COc1ccc(Oc2nc3ccc(F)cc3s2)cc1 [NZ-303, methyl 2-{4-[(6-fluoro-1,3-benzothiazol-2-yl)oxy]phenoxy}acetate]
inhibition at 20 µM ([1]; read-out: inhibition at 20 uM): 50% | MIC [2]: 4.5 µM | concentrations at which not toxic, human fibroblast cytotoxicity [4]: ≥ 100 µM

CC(C)NC(=O)Nc1ccc(Oc2cnc3cc(F)ccc3n2)cc1 [NZ-345, 1-{4-[(6-fluoroquinoxalin-2-yl)oxy]phenyl}-3-(propan-2-yl)urea]
IC50 [1]: 500 nM | MIC [2]: 25 µM (≈ 8.51 µg/mL) | concentrations at which not toxic, human fibroblast cytotoxicity [4]: ≥ 100 µM

CONC(=O)C(C)(C)Oc1ccc(Oc2cnc3cc(Cl)ccc3n2)cc1 [NZ-316, 2-{4-[(6-chloroquinoxalin-2-yl)oxy]phenoxy}-N-methoxy-2-methylpropanamide]
MIC [2]: 6 µM (≈ 2.33 µg/mL) | concentrations at which not toxic, s. cerevisiae cytotoxicity [3]: ≥ 100 µM | concentrations at which not toxic, human fibroblast cytotoxicity [4]: ≥ 100 µM

COC(=O)C(C)(C)Oc1ccc(Oc2nc3ccc(Cl)cc3s2)cc1 [NZ-317, methyl 2-{4-[(6-chloro-1,3-benzothiazol-2-yl)oxy]phenoxy}-2-methylpropanoate]
MIC [2]: 6 µM (≈ 2.27 µg/mL) | concentrations at which not toxic, s. cerevisiae cytotoxicity [3]: ≥ 100 µM | concentrations at which not toxic, human fibroblast cytotoxicity [4]: ≥ 100 µM

COC(=O)C(O)c1ccc(Oc2nc3ccc(Cl)cc3s2)cc1 (stereo not shown) [NZ-336, methyl 2-{4-[(6-chloro-1,3-benzothiazol-2-yl)oxy]phenyl}-2-hydroxyacetate]
MIC [2]: 12 µM (≈ 4.2 µg/mL) | concentrations at which not toxic, s. cerevisiae cytotoxicity [3]: 50 to 100 µM | concentrations at which not toxic, human fibroblast cytotoxicity [4]: 50 to 100 µM

CC(C(=O)NCC(O)CO)c1ccc(Oc2nc3ccc(Cl)cc3s2)cc1 (stereo not shown) [NZ-372, 2-{4-[(6-chloro-1,3-benzothiazol-2-yl)oxy]phenyl}-N-(2,3-dihydroxypropyl)propanamide]
IC50 [1]: 2750 nM | MIC [2]: 4.67 µM (≈ 1.9 µg/mL) | concentrations at which not toxic, s. cerevisiae cytotoxicity [3]: ≥ 100 µM

CONC(=O)C(O)c1ccc(Oc2nc3ccc(Cl)cc3s2)cc1 (stereo not shown) [NZ-338, 2-{4-[(6-chloro-1,3-benzothiazol-2-yl)oxy]phenyl}-2-hydroxy-N-methoxyacetamide]
IC50 [1]: 7200 nM | MIC [2]: 25 µM (≈ 9.12 µg/mL) | concentrations at which not toxic, human fibroblast cytotoxicity [4]: ≥ 100 µM

CC(C)NC(=O)Nc1ccc(Oc2nc3cc(Cl)c(Cl)cc3s2)cc1 [NZ-393, 1-{4-[(5,6-dichloro-1,3-benzothiazol-2-yl)oxy]phenyl}-3-(propan-2-yl)urea]
IC50 [1]: 5070 nM | concentrations at which not toxic, s. cerevisiae cytotoxicity [3]: ≥ 100 µM | concentrations at which not toxic, human fibroblast cytotoxicity [4]: ≥ 100 µM
